The values that follow are results of earlier work, collected in US20080262061A1, “COMPOSITION AND USE OF A LIQUID FUNGICIDAL FORMULATION OF MYCLOBUTANIL OR TEBUCONAZOLE FUNGICIDE” (HELENA HOLDING COMPANY, priority 2007, published 2008).

Molecules are shown by their SMILES.

For this series the following is noted: background statement.

With `CCCCC(C#N)(Cn1cncn1)c1ccc(Cl)cc1` (centres unmarked) [Myclobutanil, 2-p-chlorophenyl-2-(1H-1,2,4-triazol-1-ylmethyl)hexanenitrile], the water solubility entry was “not significantly water soluble”.

With `CC(C)(C)C(O)(CCc1ccc(Cl)cc1)Cn1cncn1` (racemic) [tebuconazole, (RS)-1-p-chlorophenyl-4,4-dimethyl-3-(1H-1,2,4-triazol-1-ylmethyl)═pentan-3-ol], the water solubility result was “not significantly water soluble”.
